Test results reported in PubChem BioAssay AID1918995 (Molecular Pharmacology Branch, DTP, NCI, 2023).

Tested on: 324938-238-R-J1-PDC complex spheroid growth, % test/control
Assay: Anticancer human tumor 324938-238-R-J1-PDC patient-derived bladder carcinoma cell line growth inhibition [AhR]
Settings: for IC50: curve of first compound; for viability, T/C: stronger effect = lower value
In short: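 Complex tumor spheroids co-cultured with HUVEC and human MSC stroma; AhR antagonists tested in combination with standard-of-care and investigational agents. Top concentration at or near clinical Cmax (else 10 microM), half-log dilutions; growth expressed as percent test/control.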

[1] = second compound 0.1 µM, first compound 0.00316 µM
[2] = second compound 0.1 µM, first compound 0.01 µM
[3] = second compound 0.1 µM, first compound 0.0316 µM
[4] = second compound 0.1 µM, first compound 0.1 µM
[5] = second compound 0.316 µM, first compound 0.00316 µM
[6] = second compound 0.316 µM, first compound 0.01 µM
[7] = second compound 0.316 µM, first compound 0.0316 µM
[8] = second compound 0.316 µM, first compound 0.1 µM
[9] = second compound 1 µM, first compound 0.00316 µM
[10] = second compound 1 µM, first compound 0.01 µM
[11] = second compound 1 µM, first compound 0.0316 µM
[12] = second compound 1 µM, first compound 0.1 µM
[13] = second compound 3.16 µM, first compound 0.00316 µM
[14] = second compound 3.16 µM, first compound 0.01 µM
[15] = second compound 3.16 µM, first compound 0.0316 µM
[16] = second compound 3.16 µM, first compound 0.1 µM
[17] = second compound 10 µM, first compound 0.00316 µM
[18] = second compound 10 µM, first compound 0.01 µM
[19] = second compound 10 µM, first compound 0.0316 µM
[20] = second compound 10 µM, first compound 0.1 µM
[21] = second compound 0.1 µM, first compound 0.316 µM
[22] = second compound 0.1 µM, first compound 1 µM
[23] = second compound 0.1 µM, first compound 3.16 µM
[24] = second compound 0.1 µM, first compound 10 µM
[25] = second compound 0.316 µM, first compound 0.316 µM
[26] = second compound 0.316 µM, first compound 1 µM
[27] = second compound 0.316 µM, first compound 3.16 µM
[28] = second compound 0.316 µM, first compound 10 µM
[29] = second compound 1 µM, first compound 0.316 µM
[30] = second compound 1 µM, first compound 1 µM
[31] = second compound 1 µM, first compound 3.16 µM
[32] = second compound 1 µM, first compound 10 µM
[33] = second compound 3.16 µM, first compound 0.316 µM
[34] = second compound 3.16 µM, first compound 1 µM
[35] = second compound 3.16 µM, first compound 3.16 µM
[36] = second compound 3.16 µM, first compound 10 µM
[37] = second compound 10 µM, first compound 0.316 µM
[38] = second compound 10 µM, first compound 1 µM
[39] = second compound 10 µM, first compound 3.16 µM
[40] = second compound 10 µM, first compound 10 µM
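Note: spheroids exposed to agents for seven days before viability read.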

SMILES	IC50 (second compound 0.1 µM) [nM]	IC50 (second compound 0.316 µM) [nM]	IC50 (second compound 1 µM) [nM]	IC50 (second compound 3.16 µM) [nM]	IC50 (second compound 10 µM) [nM]	viability, T/C [3] [%]	viability, T/C [4] [%]	viability, T/C [7] [%]	viability, T/C [8] [%]	viability, T/C [11] [%]	viability, T/C [12] [%]	viability, T/C [15] [%]	viability, T/C [16] [%]	viability, T/C [19] [%]	viability, T/C [20] [%]	viability, T/C [21] [%]	viability, T/C [22] [%]	viability, T/C [25] [%]	viability, T/C [26] [%]	viability, T/C [29] [%]	further results
CC[C@@]1(O)C(=O)OCc2c1cc1n(c2=O)Cc2cc3c(CN(C)C)c(O)ccc3nc2-1 + Cc1ccccc1N=Nc1ccc(NC(=O)c2ccnn2C)c(C)c1	19.6	20.7	18.5	17	20	32.8	16.2	38.1	17.4	36	15.7	34.7	15.6	41.3	18.7	–	–	–	–	–	viability, T/C (second compound 0.1 µM, first compound 0.000316 µM): 102%; viability, T/C (second compound 0.1 µM, first compound 0.001 µM): 107%; viability, T/C [1]: 88.9%; viability, T/C [2]: 74.6%; viability, T/C (second compound 0.316 µM, first compound 0.000316 µM): 91.9%; viability, T/C (second compound 0.316 µM, first compound 0.001 µM): 101%; viability, T/C [5]: 94.8%; viability, T/C [6]: 70.7%; viability, T/C (second compound 1 µM, first compound 0.000316 µM): 86.8%; viability, T/C (second compound 1 µM, first compound 0.001 µM): 98.5%; viability, T/C [9]: 86.6%; viability, T/C [10]: 66%; viability, T/C (second compound 3.16 µM, first compound 0.000316 µM): 86.2%; viability, T/C (second compound 3.16 µM, first compound 0.001 µM): 86.3%; viability, T/C [13]: 87%; viability, T/C [14]: 61.9%; viability, T/C (second compound 10 µM, first compound 0.000316 µM): 83.9%; viability, T/C (second compound 10 µM, first compound 0.001 µM): 88.3%; viability, T/C [17]: 73.6%; viability, T/C [18]: 63.9%
COc1cc(C2c3cc4c(cc3C(OC3OC5COC(C)OC5C(O)C3O)C3COC(=O)C23)OCO4)cc(OC)c1O (stereo not given) + Cc1ccccc1N=Nc1ccc(NC(=O)c2ccnn2C)c(C)c1	391	303	309	249	287	89.2	79.3	78.4	87.8	79.2	75.5	68.2	61.6	70.5	65.5	52.3	33.4	48.7	33	47.2	viability, T/C [23]: 28%; viability, T/C [24]: 19.5%; viability, T/C [27]: 27%; viability, T/C [28]: 16.9%; viability, T/C [30]: 29.6%; viability, T/C [31]: 23.7%; viability, T/C [32]: 16.4%; viability, T/C [33]: 46.4%; viability, T/C [34]: 33.3%; viability, T/C [35]: 28%; viability, T/C [36]: 16%; viability, T/C [37]: 43.3%; viability, T/C [38]: 38.7%; viability, T/C [39]: 31.8%; viability, T/C [40]: 18.5%
COc1cccc2c1C(=O)c1c(O)c3c(c(O)c1C2=O)CC(O)(C(=O)CO)CC3OC1CC(N)C(O)C(C)O1 (stereo not given) + Cc1ccccc1N=Nc1ccc(NC(=O)c2ccnn2C)c(C)c1	< 31.6	< 31.6	< 31.6	< 31.6	< 31.6	34.7	29.3	37.7	35.9	35.1	31.4	34.7	31.7	38	37.6	18.9	4.96	13.8	4.13	16.4	viability, T/C [23]: 0.1%; viability, T/C [24]: 0.15%; viability, T/C [27]: 0.05%; viability, T/C [28]: 0.13%; viability, T/C [30]: 3.09%; viability, T/C [31]: 0.05%; viability, T/C [32]: 0.12%; viability, T/C [33]: 15.9%; viability, T/C [34]: 3.16%; viability, T/C [35]: 0.08%; viability, T/C [36]: 0.13%; viability, T/C [37]: 22%; viability, T/C [38]: 5.73%; viability, T/C [39]: 0.14%; viability, T/C [40]: 0.2%
Nc1ncn(C2CC(O)C(CO)O2)c(=O)n1 (stereo not given) + Cc1ccccc1N=Nc1ccc(NC(=O)c2ccnn2C)c(C)c1	> 1000	> 1000	> 1000	> 1000	> 1000	97.8	83.3	89.4	78.5	89.5	74.7	77.2	68.7	78.6	73.6	71.2	65.3	69.7	64.8	82.3	viability, T/C [1]: 90.1%; viability, T/C [2]: 94.7%; viability, T/C [5]: 81.9%; viability, T/C [6]: 87.9%; viability, T/C [9]: 85.3%; viability, T/C [10]: 83%; viability, T/C [30]: 62%; viability, T/C [13]: 74.9%; viability, T/C [14]: 78.7%; viability, T/C [33]: 70%; viability, T/C [34]: 60.9%; viability, T/C [17]: 77.9%; viability, T/C [18]: 76.1%; viability, T/C [37]: 73.4%; viability, T/C [38]: 60.7%
